The values below come from patent US10683273B2, “Compounds as DNA probes, methods and applications thereof” (JAWAHARLAL NEHRU CENTRE FOR ADVANCED SCIENTIFIC RESEARCH, priority 2015, dated 2020).

Series [1] deals with MCF-7 cells. In words: Fluorescence study in live cells. Format: cell-based. As to conditions: live MCF-7 cells, 0.5 and 1 μM, 60 min. As to the method:
MCF-7 cells are propagated on 20 mm cover slips in a 6-well plate in DMEM medium supplemented with 10% fetal bovine serum at about 37° C. in a humidified atmosphere containing 5% CO2 till 80% confluency is achieved. Cells are incubated for about 60 min with probe QCy-DT (resuspended in Mili-Q water) at various concentrations (0.5 μM and 1 μM) in a humidified CO2 incubator at about 37° C. Milli-Q water is used as a vehicle control. Following the treatment, fluorescence microscopy is performed using Carl Zeiss AXIO Imager Z1 and the software used for image capturing is AxioVision Rel. 4.8.
In order to check its permeability, cellular uptake studies are carried out in live and fixed conditions of MCF-7 and HeLa cells, respectively. First, MCF-7 cells are incubated with probe QCy-DT (0.5 and 1 μM) without fixing, and live cell imaging is conducted using Carl Zeiss fluorescence microscope as described above. […] Next, HeLa cells are fixed and incubated with QCy-DT (0.5 and 1 μM) along with Hoechst as the control nuclear staining dye. […] Therefore, staining results obtained with live and fixed cells confirmed high cell permeability, efficiency (low staining concentration of 1 μM), and preferential targeting of cell nuclear DNA.

In series [2] the test system is DNA. In words: Stokes shift from absorption and emission spectra, in presence of DNA. Format: physicochemical. As to conditions: present disclosure. The protocol:
The UV-vis absorption and emission spectra are recorded on Agilent Technologies Cary series UV-vis-NIR absorbance and Cary eclipse fluorescence spectrophotometers, respectively. Thermal denaturation (UV-melting) studies are carried out on Cary 5000 UV-vis-NIR spectrophotometer equipped with Cary temperature controller in the range of 10° C. to 90° C. with a ramp rate of 1° C./min. The variable temperature/wavelength mode is used. Absorption is monitored at 260 nm with regular 5° C. intervals. Melting temperatures (Tm) of DNA samples are calculated from the first derivatives of the absorption vs. temperature curves (thermal denaturation or melting curves) obtained by monitoring at 260 nm.
The molecular interactions of QCy-DT is studied by evaluating the absorption and emission properties in Tris-buffer (100 mM, pH=7.4) under ambient conditions. […] The NIR-fluorescence of QCy-DT arises due to extended through the Cy7 backbone and ICT process. The weak or non-fluorescent behavior of dye molecules in buffer solution is mainly attributed to the intramolecular twisting processes, which cause quenching of the fluorescence of cyanine dyes, solvation with water molecules also aids the fluorescence quenching by means of deactivation of […]. […]

In series [3] the test system is d(ATAT)5. In words: Switch-on NIR-fluorescence enhancement with DNA. The series is classed as binding. The protocol: All the chemicals, reagents, single-stranded oligos (dA20, dT20, dG20, dC20), self-complementary oligos {d(ATAT)5, (D1)mix, Drew-AT, Calf-Thymus DNA (CT-DNA), (DM1, DM2, DM3, DM4, DM5, DM6 and DM7)}, RNA, were purchased from Sigma-Aldrich. ^1H and ^13C NMR spectra were recorded on a Bruker AV-400 MHz spectrometer with chemical shifts reported as parts per million (ppm) (in DMSO-d6, tetramethylsilane as an internal standard) at 20° C. UV-vis absorption and emission spectra were measured in quartz cuvettes of 1 cm path length. High resolution mass spectra (HRMS) were obtained on Agilent Technologies 6538 UHD Accurate-Mass Q-TOF LC/MS spectrometer. All biophysical studies (UV-vis, fluorescence and Cirular dichroism) are carried out at the concentration 0-5 μM of probe, volume=500 μL, temperature=25° C. and time of incubation=2 minutes. […]
The UV-vis absorption and emission spectra are recorded on Agilent Technologies Cary series UV-vis-NIR absorbance and Cary eclipse fluorescence spectrophotometers, respectively. […] Absorption is monitored at 260 nm with regular 5° C. intervals. Melting temperatures (Tm) of DNA samples are calculated from the first derivatives of the absorption vs. temperature curves (thermal denaturation or melting curves) obtained by monitoring at 260 nm. […]

With `C[n+]1c(/C=C/c2ccc(O)c(/C=C/c3sc4ccccc4[n+]3C)c2)sc2ccccc21` [QCy-DT, quinone cyanine-dithiazole], the “cellular uptake / nuclear staining” value in series [1] is listed as “selective staining of the cell nucleus”. In series [2], the “Stokes shift in presence of DNA” value worked out at 86 nm. Also, in series [3], the fluorescence enhancement was around 54 fold.
